Earlier results in publication PMC7465340, “Preparation and Evaluation of Eudragit L100-PEG Proliponiosomes for Enhanced Oral Delivery of Celecoxib” (Pharmaceutics, 2020).
Converted amounts (≈) assume the structure as drawn. Read-outs that look alike come from different tables or passages of the source.

solubility in aqueous media (pH 1.2): 1.4 µg/mL (≈ 3.67 µM)
solubility in aqueous media (pH 6.8): 1.2 µg/mL (≈ 3.15 µM)
solubility of free CXB (pH 6.8): ≈ 1.23 ± 0.05 μg/mL
Compound: Cc1ccc(-c2cc(C(F)(F)F)nn2-c2ccc(S(N)(=O)=O)cc2)cc1 [CXB, Celecoxib]
